Measurements taken from patent US10906915B2, “Substituted pyrazoloazepin-4-ones and their use as phosphodiesterase inhibitors” (LEO Pharma A/S, priority 2016, dated 2021).

What follows are compounds tested against human PDE4D catalytic domain (UniProt no. Q08499) (Homo sapiens (Human), UniProt Q08499) (assay: PDE4 assay (TR-FRET, FAM-cAMP cleavage)). Settings: human PDE4D catalytic domain; molar concentration giving 50% inhibition of substrate cleavage; read-out: PDE4 IC50 range.
Chain of human PDE4D catalytic domain (Q08499 380-740 limits assumed): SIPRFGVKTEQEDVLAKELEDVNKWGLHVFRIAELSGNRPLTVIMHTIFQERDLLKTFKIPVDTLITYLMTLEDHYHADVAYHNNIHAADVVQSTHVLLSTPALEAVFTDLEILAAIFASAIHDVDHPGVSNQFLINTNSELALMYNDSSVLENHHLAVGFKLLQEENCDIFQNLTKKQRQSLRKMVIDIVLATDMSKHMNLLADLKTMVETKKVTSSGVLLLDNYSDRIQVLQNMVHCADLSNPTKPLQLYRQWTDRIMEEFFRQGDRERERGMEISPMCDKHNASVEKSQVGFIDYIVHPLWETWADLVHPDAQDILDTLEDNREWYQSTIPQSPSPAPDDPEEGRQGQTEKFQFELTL
Assay type: biochemical
Outline: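 Read-out is time-resolved FRET from Tb donor to FAM-AMP captured on trivalent-metal nanoparticles added to stop the reaction. Substrate was a mix of plain and FAM-labelled cAMP, cleaved by human PDE4D catalytic domain ([…]) with titrated compound; IC50 ranges (nM) versus controls.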
For `CCc1nn(CCCOC(=O)c2cccc(OC)c2F)c2c1C(=O)NCC1(CCOCC1)C2` [Example 66, 3-(3-ethyl-4-oxo-spiro[6,8-dihydro-5H-pyrazolo[4,3-c]azepine-7,4′-tetrahydropyran]-1-yl)propyl 2-fluoro-3-methoxy-benzoate], the IC50 was under 100 nM.
`CCc1nn(CCCOC(=O)c2ccc(C)c(C)c2)c2c1C(=O)NCC1(CCOCC1)C2` [Example 26, 3-(3-ethyl-4-oxo-spiro[6,8-dihydro-5H-pyrazolo[4,3-c]azepine-7,4′-tetrahydropyran]-1-yl)propyl 3,4-dimethylbenzoate] showed an IC50 of under 100 nM.
For `CCc1nn(CCCOC(=O)c2ccccc2OC)c2c1C(=O)NCC1(CCOCC1)C2` [Example 30, 3-(3-ethyl-4-oxo-spiro[6,8-dihydro-5H-pyrazolo[4,3-c]azepine-7,4′-tetrahydropyran]-1-yl)propyl 2-methoxybenzoate], the IC50 was under 100 nM.
For `CCc1nn(C[C@@H](C)COC(=O)C(CC)CC)c2c1C(=O)NCC1(CCOCC1)C2` [Example 162, [(2R)-3-(3-ethyl-4-oxo-spiro[6,8-dihydro-5H-pyrazolo[4,3-c]azepine-7,4′-tetrahydropyran]-1-yl)-2-methyl-propyl] 2-ethylbutanoate], the IC50 was under 100 nM.
Compound `CCc1nn(CCCOC(=O)c2ccc(C)c(Cl)c2)c2c1C(=O)NCC1(CCOCC1)C2` [Example 72, 3-(3-ethyl-4-oxo-spiro[6,8-dihydro-5H-pyrazolo[4,3-c]azepine-7,4′-tetrahydropyran]-1-yl)propyl 3-chloro-4-methyl-benzoate] has an IC50 of under 100 nM.
`CCc1nn(CCCOC(=O)CCSC)c2c1C(=O)NCC1(CCOCC1)C2` [Example 13, 3-(3-ethyl-4-oxo-spiro[6,8-dihydro-5H-pyrazolo[4,3-c]azepine-7,4′-tetrahydropyran]-l-yl)propyl 3-methylsulfanylpropanoate] showed an IC50 of 100 to 500 nM.
In the case of `CCc1nn(CCCOC(=O)c2cccc(C#N)c2)c2c1C(=O)NCC1(CCOCC1)C2` [Example 23, 3-(3-ethyl-4-oxo-spiro[6,8-dihydro-5H-pyrazolo[4,3-c]azepine-7,4′-tetrahydropyran]-1-yl)propyl 3-cyanobenzoate], the IC50 is reported as under 100 nM.
With `CCc1nn(CCCOC(=O)c2ccc(S(=O)(=O)C(C)C)cc2)c2c1C(=O)NCC1(CCOCC1)C2` [Example 130, 3-(3-ethyl-4-oxo-spiro[6,8-dihydro-5H-pyrazolo[4,3-c]azepine-7,4′-tetrahydropyran]-1-yl)propyl 4-isopropylsulfonylbenzoate] the IC50 was under 100 nM.
With `CCc1nn(CCCOC(=O)c2cc(Cl)cc(C(F)(F)F)c2)c2c1C(=O)NCC1(CCOCC1)C2` [Example 127, 3-(3-ethyl-4-oxo-spiro[6,8-dihydro-5H-pyrazolo[4,3-c]azepine-7,4′-tetrahydropyran]-1-yl)propyl 3-chloro-5-(trifluoromethyl)benzoate] the IC50 was under 100 nM.
Work on `CCc1nn(C[C@@H](C)COC(=O)c2ccc(C(F)(F)F)c(F)c2)c2c1C(=O)NCC1(CCOCC1)C2` [Example 219, [(2R)-3-(3-ethyl-4-oxo-spiro[6,8-dihydro-5H-pyrazolo[4,3-c]azepine-7,4′-tetrahydropyran]-1-yl)-2-methyl-propyl] 3-fluoro-4-(trifluoromethyl)benzoate] yielded an IC50 of under 100 nM.
In the case of `CCc1nn(C[C@@H](C)COC(=O)c2ccc(C)cc2)c2c1C(=O)NCC1(CCOCC1)C2` [Example 164, [(2R)-3-(3-ethyl-4-oxo-spiro[6,8-dihydro-5H-pyrazolo[4,3-c]azepine-7,4′-tetrahydropyran]-1-yl)-2-methyl-propyl] 4-methylbenzoate], the IC50 is reported as under 100 nM.
Compound `CCc1nn(CCCOC(=O)c2ccc(C(=O)N3CCCCC3)cc2)c2c1C(=O)NCC1(CCOCC1)C2` [Example 146, 3-(3-ethyl-4-oxo-spiro[6,8-dihydro-5H-pyrazolo[4,3-c]azepine-7,4′-tetrahydropyran]-1-yl)propyl 4-(piperidine-1-carbonyl)benzoate] has an IC50 of under 100 nM.
Work on `CCc1nn(CCCOC(=O)c2ccc(C(=O)NC)cc2)c2c1C(=O)NCC1(CCOCC1)C2` [Example 141, 3-(3-ethyl-4-oxo-spiro[6,8-dihydro-5H-pyrazolo[4,3-c]azepine-7,4′-tetrahydropyran]-1-yl)propyl 4-(methylcarbamoyl)benzoate] yielded an IC50 of under 100 nM.
`CCc1nn(CCCOC(=O)c2ccc(C(=O)NC(C)C)cc2)c2c1C(=O)NCC1(CCOCC1)C2` [Example 144, 3-(3-ethyl-4-oxo-spiro[6,8-dihydro-5H-pyrazolo[4,3-c]azepine-7,4′-tetrahydropyran]-1-yl)propyl 4-(isopropylcarbamoyl)-benzoate] gave an IC50 of under 100 nM.
Compound `CCc1nn(CCCOC(=O)c2ccc(OC)c(C)c2)c2c1C(=O)NCC1(CCOCC1)C2` [Example 58, 3-(3-ethyl-4-oxo-spiro[6,8-dihydro-5H-pyrazolo[4,3-c]azepine-7,4′-tetrahydropyran]-1-yl)propyl 4-methoxy-3-methyl-benzoate] has an IC50 of under 100 nM.
Work on `CCc1nn(CCCOC(=O)c2cccc(S(N)(=O)=O)c2)c2c1C(=O)NCC1(CCOCC1)C2` [Example 102, 3-(3-ethyl-4-oxo-spiro[6,8-dihydro-5H-pyrazolo[4,3-c]azepine-7,4′-tetrahydropyran]-1-yl)propyl 3-sulfamoylbenzoate] yielded an IC50 of under 100 nM.
Compound `CCc1nn(CCCOC(=O)c2ccc(C(=O)N3CCN(C(C)=O)CC3)cc2)c2c1C(=O)NCC1(CCOCC1)C2` [Example 149, 3-(3-ethyl-4-oxo-spiro[6,8-dihydro-5H-pyrazolo[4,3-c]azepine-7,4′-tetrahydropyran]-1-yl)propyl 4-(4-acetylpiperazine-1-carbonyl)benzoate] has an IC50 of 100 to 500 nM.
Work on `CCc1nn(CCCOC(=O)[C@H]2CC[C@H](O)CC2)c2c1C(=O)NCC1(CCOCC1)C2` [Example 22, 3-(3-ethyl-4-oxo-spiro[6,8-dihydro-5H-pyrazolo[4,3-c]azepine-7,4′-tetrahydropyran]-1-yl)propyl trans-4-hydroxycyclohexane-carboxylate] yielded an IC50 of 100 to 500 nM.
For `CCc1nn(C[C@@H](C)COC(=O)c2ccc(F)c(Cl)c2)c2c1C(=O)NCC1(CCOCC1)C2` [Example 204, [(2R)-3-(3-ethyl-4-oxo-spiro[6,8-dihydro-5H-pyrazolo[4,3-c]azepine-7,4′-tetrahydropyran]-1-yl)-2-methyl-propyl] 3-chloro-4-fluoro-benzoate], the IC50 was under 100 nM.
`CCc1nn(CCCOC(=O)c2ccc(F)c(OC)c2)c2c1C(=O)NCC1(CCOCC1)C2` [Example 65, 3-(3-ethyl-4-oxo-spiro[6,8-dihydro-5H-pyrazolo[4,3-c]azepine-7,4′-tetrahydropyran]-1-yl)propyl 4-fluoro-3-methoxy-benzoate] gave an IC50 of under 100 nM.
In the case of `CCc1nn(CCCOC(=O)c2ccc(F)c(C(F)(F)F)c2)c2c1C(=O)NCC1(CCOCC1)C2` [Example 111, 3-(3-ethyl-4-oxo-spiro[6,8-dihydro-5H-pyrazolo[4,3-c]azepine-7,4′-tetrahydropyran]-1-yl)propyl 4-fluoro-3-(trifluoromethyl)benzoate], the IC50 is reported as under 100 nM.
With `CCc1nn(CCCOC(=O)c2c(C)cccc2F)c2c1C(=O)NCC1(CCOCC1)C2` [Example 39, 3-(3-ethyl-4-oxo-spiro[6,8-dihydro-5H-pyrazolo[4,3-c]azepine-7,4′-tetrahydropyran]-1-yl)propyl 2-fluoro-6-methyl-benzoate] the IC50 was under 100 nM.
`CCc1nn(CCCOC(=O)c2ccc(S(=O)(=O)C3CCCC3)cc2)c2c1C(=O)NCC1(CCOCC1)C2` [Example 132, 3-(3-ethyl-4-oxo-spiro[6,8-dihydro-5H-pyrazolo[4,3-c]azepine-7,4′-tetrahydropyran]-1-yl)propyl 4-cyclopentylsulfonyl-benzoate] gave an IC50 of 100 to 500 nM.
`CCc1nn(C[C@@H](C)COC(=O)C2CCCC2)c2c1C(=O)NCC1(CCOCC1)C2` [Example 161, [(2R)-3-(3-ethyl-4-oxo-spiro[6,8-dihydro-5H-pyrazolo[4,3-c]azepine-7,4′-tetrahydropyran]-1-yl)-2-methyl-propyl] cyclopentanecarboxylate] was tested, and the IC50 was under 100 nM.

Same assay, conditions: read-out: PDE4 IC50 range
`CCc1nn(C[C@@H](C)COC(=O)c2cccc(C(=O)N3CCN(C(C)=O)CC3)c2)c2c1C(=O)NCC1(CCOCC1)C2` [Example 273, [(2R)-3-(3-ethyl-4-oxo-spiro[6,8-dihydro-5H-pyrazolo[4,3-c]azepine-7,4′-tetrahydropyran]-l-yl)-2-methyl-propyl] 3-(4-acetylpiperazine-1-carbonyl)benzoate] was tested, and the IC50 was under 100 nM.
Compound `CCc1nn(CC(C)(C)COC(=O)C(CC)CC)c2c1C(=O)NCC1(CCOCC1)C2` [Example 282, [3-(3-ethyl-4-oxo-spiro[6,8-dihydro-5H-pyrazolo[4,3-c]azepine-7,4′-tetrahydropyran]-1-yl)-2,2-dimethyl-propyl] 2-ethylbutanoate] has an IC50 of under 100 nM.
With `CCNC(=O)c1cccc(C(=O)OC[C@H](C)Cn2nc(CC)c3c2CC2(CCOCC2)CNC3=O)c1` [Example 265, [(2R)-3-(3-ethyl-4-oxo-spiro[6,8-dihydro-5H-pyrazolo[4,3-c]azepine-7,4′-tetrahydropyran]-1-yl)-2-methyl-propyl] 3-(ethylcarbamoyl)benzoate] the IC50 was under 100 nM.
With `CCc1nn(CC(C)(C)COC(=O)c2cccc(S(=O)(=O)N3CCOCC3)c2)c2c1C(=O)NCC1(CCOCC1)C2` [Example 323, [3-(3-ethyl-4-oxo-spiro[6,8-dihydro-5H-pyrazolo[4,3-c]azepine-7,4′-tetrahydropyran]-1-yl)-2,2-dimethyl-propyl] 3-morpholinosulfonylbenzoate] the IC50 was under 100 nM.
In the case of `CCc1nn(CC(C)(C)COC(=O)c2ccc(S(=O)(=O)N3CCCC3)cc2)c2c1C(=O)NCC1(CCOCC1)C2` [Example 321, [3-(3-ethyl-4-oxo-spiro[6,8-dihydro-5H-pyrazolo[4,3-c]azepine-7,4′-tetrahydropyran]-1-yl)-2,2-dimethyl-propyl] 4-pyrrolidin-1-ylsulfonylbenzoate], the IC50 is reported as under 100 nM.
`CCc1nn(CCCCOC(=O)c2ccc(C(=O)N(C)C)cc2)c2c1C(=O)NCC1(CCOCC1)C2` [Example 380, 4-(3-ethyl-4-oxo-spiro[6,8-dihydro-5H-pyrazolo[4,3-c]azepine-7,4′-tetrahydropyran]-1-yl)butyl 4-(dimethylcarbamoyl)benzoate] showed an IC50 of 100 to 500 nM.
